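Cultured in 96-well plates, cells were exposed to test compound for 48 hours across five concentrations. Definition used: TGI = concentration required for complete inhibition of growth.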
Columns and labels:
Assay in all cases: NCI-60 cell line screen, 48 h
HOP-92 NSCLC = test system: HOP-92 NSCLC
UACC-257 melanoma = test system: UACC-257 melanoma
OVCAR-8 ovarian = test system: OVCAR-8 ovarian
ACHN renal = test system: ACHN renal
SK-OV-3 ovarian = test system: SK-OV-3 ovarian
BT-549 breast = test system: BT-549 breast
OVCAR-3 ovarian = test system: OVCAR-3 ovarian
SK-MEL-5 melanoma = test system: SK-MEL-5 melanoma
M14 melanoma = test system: M14 melanoma
TK-10 renal = test system: TK-10 renal
K-562 leukemia = test system: K-562 leukemia
EKVX NSCLC = test system: EKVX NSCLC
HT29 colon = test system: HT29 colon
CCRF-CEM leukemia = test system: CCRF-CEM leukemia
HS 578T breast = test system: HS 578T breast
HL-60(TB) leukemia = test system: HL-60(TB) leukemia
KM12 colon = test system: KM12 colon
SK-MEL-2 melanoma = test system: SK-MEL-2 melanoma
SF-539 CNS = test system: SF-539 CNS
MDA-N = test system: MDA-N
DU-145 prostate = test system: DU-145 prostate
HOP-62 NSCLC = test system: HOP-62 NSCLC
CAKI-1 renal = test system: CAKI-1 renal
COLO 205 colon = test system: COLO 205 colon
PC-3 prostate = test system: PC-3 prostate
786-0 renal = test system: 786-0 renal
HCC-2998 colon = test system: HCC-2998 colon
SK-MEL-28 melanoma = test system: SK-MEL-28 melanoma
SF-268 CNS = test system: SF-268 CNS
LOX IMVI melanoma = test system: LOX IMVI melanoma
HCT-116 colon = test system: HCT-116 colon
MOLT-4 leukemia = test system: MOLT-4 leukemia
SN12C renal = test system: SN12C renal
A498 renal = test system: A498 renal
HCT-15 colon = test system: HCT-15 colon
NCI/ADR-RES ovarian = test system: NCI/ADR-RES ovarian
T-47D breast = test system: T-47D breast
OVCAR-5 ovarian = test system: OVCAR-5 ovarian
NCI-H460 lung = test system: NCI-H460 lung
OVCAR-4 ovarian = test system: OVCAR-4 ovarian
IGROV1 ovarian = test system: IGROV1 ovarian
MDA-MB-231 breast = test system: MDA-MB-231 breast
A549 NSCLC = test system: A549 NSCLC
SNB-19 CNS = test system: SNB-19 CNS
UO-31 renal = test system: UO-31 renal
NCI-H23 lung = test system: NCI-H23 lung
RXF 393 renal = test system: RXF 393 renal
MCF7 breast = test system: MCF7 breast
SF-295 CNS = test system: SF-295 CNS
SW-620 colon = test system: SW-620 colon
SNB-75 CNS = test system: SNB-75 CNS
RPMI-8226 leukemia = test system: RPMI-8226 leukemia
NCI-H226 lung = test system: NCI-H226 lung
MDA-MB-435 = test system: MDA-MB-435
UACC-62 melanoma = test system: UACC-62 melanoma
U251 CNS = test system: U251 CNS
MALME-3M melanoma = test system: MALME-3M melanoma
NCI-H522 lung = test system: NCI-H522 lung

SMILES: C=c1c2ccccc2oc2nc3[nH]c(N)c(C#N)c(N)c3c(=N)c12
- TGI (HOP-92 NSCLC): > 100 µM
- TGI (UACC-257 melanoma): > 100 µM
- TGI (OVCAR-8 ovarian): 54.6 µM
- TGI (ACHN renal): > 100 µM
- TGI (SK-OV-3 ovarian): > 100 µM
- TGI (BT-549 breast): > 100 µM
- TGI (OVCAR-3 ovarian): 43.3 µM
- TGI (SK-MEL-5 melanoma): 57.2 µM
- TGI (M14 melanoma): > 100 µM
- TGI (TK-10 renal): > 100 µM
- TGI (K-562 leukemia): > 100 µM
- TGI (EKVX NSCLC): 73 µM
- TGI (HT29 colon): 80.8 µM
- TGI (CCRF-CEM leukemia): > 100 µM
- TGI (HS 578T breast): 86.2 µM
- TGI (HL-60(TB) leukemia): 90.3 µM
- TGI (KM12 colon): 56.4 µM
- TGI (SK-MEL-2 melanoma): 37.8 µM
- TGI (SF-539 CNS): 71.5 µM
- TGI (MDA-N): > 100 µM
- TGI (DU-145 prostate): > 100 µM
- TGI (HOP-62 NSCLC): > 100 µM
- TGI (CAKI-1 renal): > 100 µM
- TGI (COLO 205 colon): > 100 µM
- TGI (PC-3 prostate): 66.9 µM
- TGI (786-0 renal): > 100 µM
- TGI (HCC-2998 colon): 66.7 µM
- TGI (SK-MEL-28 melanoma): > 100 µM
- TGI (SF-268 CNS): 70.9 µM
- TGI (LOX IMVI melanoma): 68.4 µM
- TGI (HCT-116 colon): > 100 µM
- TGI (MOLT-4 leukemia): 89.2 µM
- TGI (SN12C renal): > 100 µM
- TGI (A498 renal): > 100 µM
- TGI (HCT-15 colon): > 100 µM
- TGI (NCI/ADR-RES ovarian): > 100 µM
- TGI (T-47D breast): > 100 µM
- TGI (OVCAR-5 ovarian): > 100 µM
- TGI (NCI-H460 lung): > 100 µM
- TGI (OVCAR-4 ovarian): > 100 µM
- TGI (IGROV1 ovarian): 42.5 µM
- TGI (MDA-MB-231 breast): > 100 µM
- TGI (A549 NSCLC): > 100 µM
- TGI (SNB-19 CNS): > 100 µM
- TGI (UO-31 renal): > 100 µM
- TGI (NCI-H23 lung): 62.7 µM
- TGI (RXF 393 renal): > 100 µM
- TGI (MCF7 breast): > 100 µM
- TGI (SF-295 CNS): > 100 µM
- TGI (SW-620 colon): > 100 µM
- TGI (SNB-75 CNS): 90.3 µM
- TGI (RPMI-8226 leukemia): > 100 µM
- TGI (NCI-H226 lung): 74.9 µM
- TGI (MDA-MB-435): > 100 µM
- TGI (UACC-62 melanoma): > 100 µM
- TGI (U251 CNS): > 100 µM
- TGI (MALME-3M melanoma): 78.7 µM

SMILES: COc1c(C(=O)CC2c3c(cc4oc(C)cc(=O)c4c3OC)OC(=N)C2c2nc3ccccc3[nH]2)c(O)c(OC)c2occc12 (centres undefined)
- TGI (HOP-92 NSCLC): > 100 µM
- TGI (UACC-257 melanoma): > 100 µM
- TGI (OVCAR-8 ovarian): > 100 µM
- TGI (ACHN renal): > 100 µM
- TGI (SK-OV-3 ovarian): > 100 µM
- TGI (BT-549 breast): > 100 µM
- TGI (OVCAR-3 ovarian): > 100 µM
- TGI (SK-MEL-5 melanoma): > 100 µM
- TGI (M14 melanoma): > 100 µM
- TGI (TK-10 renal): > 100 µM
- TGI (K-562 leukemia): > 100 µM
- TGI (EKVX NSCLC): > 100 µM
- TGI (HT29 colon): > 100 µM
- TGI (CCRF-CEM leukemia): > 100 µM
- TGI (HS 578T breast): > 100 µM
- TGI (HL-60(TB) leukemia): > 100 µM
- TGI (KM12 colon): > 100 µM
- TGI (SK-MEL-2 melanoma): > 100 µM
- TGI (MDA-N): > 100 µM
- TGI (DU-145 prostate): > 100 µM
- TGI (HOP-62 NSCLC): > 100 µM
- TGI (CAKI-1 renal): > 100 µM
- TGI (COLO 205 colon): > 100 µM
- TGI (PC-3 prostate): > 100 µM
- TGI (786-0 renal): > 100 µM
- TGI (HCC-2998 colon): > 100 µM
- TGI (SK-MEL-28 melanoma): > 100 µM
- TGI (SF-268 CNS): > 100 µM
- TGI (LOX IMVI melanoma): > 100 µM
- TGI (HCT-116 colon): > 100 µM
- TGI (MOLT-4 leukemia): > 100 µM
- TGI (SN12C renal): > 100 µM
- TGI (A498 renal): > 100 µM
- TGI (HCT-15 colon): > 100 µM
- TGI (NCI/ADR-RES ovarian): > 100 µM
- TGI (T-47D breast): > 100 µM
- TGI (OVCAR-5 ovarian): > 100 µM
- TGI (NCI-H460 lung): > 100 µM
- TGI (OVCAR-4 ovarian): > 100 µM
- TGI (IGROV1 ovarian): > 100 µM
- TGI (MDA-MB-231 breast): > 100 µM
- TGI (A549 NSCLC): > 100 µM
- TGI (SNB-19 CNS): > 100 µM
- TGI (UO-31 renal): > 100 µM
- TGI (NCI-H23 lung): > 100 µM
- TGI (RXF 393 renal): > 100 µM
- TGI (MCF7 breast): > 100 µM
- TGI (SF-295 CNS): > 100 µM
- TGI (SW-620 colon): > 100 µM
- TGI (SNB-75 CNS): > 100 µM
- TGI (RPMI-8226 leukemia): > 100 µM
- TGI (NCI-H226 lung): > 100 µM
- TGI (MDA-MB-435): > 100 µM
- TGI (NCI-H522 lung): > 100 µM
- TGI (UACC-62 melanoma): > 100 µM
- TGI (U251 CNS): > 100 µM
- TGI (MALME-3M melanoma): > 100 µM

From PubChem BioAssay (NCI)
